In test [1] the test system is monocyte-derived M1 macrophages. Description: M1 differentiation assay (macrophage TNFα, IL6, IL10 ELISA, FACS). Type of test: cell-based, human. The following applies: for inhibition at 10 µM / activation at 10 µM / inhibition at 50 µM / activation at 50 µM: Homo sapiens, Macrophage; for activation at 10 µM / activation at 50 µM: read-out: % Increase in IL-10 Secretion. A digest of the protocol: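 CD14+ human blood monocytes (100,000) differentiated 6 days with 10 ng/ml GM-CSF plus compound at 10 or 50 μM, refreshed days 2 and 4. Matured 24 h with GM-CSF, IFNγ, LPS plus compound. Supernatant TNFα, IL6, IL10 by ELISA; FACS M1 phenotype CD86+CD68+CD163−.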
For orientation: In an ELISA, binding on a coated surface is turned into a signal by an enzyme label.

For test [2], the system named is Methylmalonic Acidemia (MMA) primary fibroblasts Tsi 5224. Description: Mitochondrial respiration, XFe96 Extracellular Flux Analyzer (OCR/ECAR), MMA fibroblasts Tsi 5224.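 On Increase in Maximal Respiratory Capacity AUC: relative to vehicle DMSO control.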 The format is cell-based. The conditions noted are these: Homo sapiens, Fibroblast. In short, it runs like this:
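Primary fibroblasts (20000 cells/well) were held 24 h in supplemented DMEM before Seahorse OCR/ECAR profiling. Compounds at 10 to 50 μM or 0.1% DMSO were injected after baseline, then oligomycin 1 μg/ml, FCCP, and rotenone/antimycin A 0.5 μM. Values were normalized to Hoechst nuclear counts, baselined to pre-compound, and expressed relative to vehicle.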

Where [3] appears, read: 10 uM, read-out: % decrease in Macrophage TNFα Secretion.
Setting [4] is: MMA Tsi 5224, assay condition D (1 mM glucose, 10% FBS), read-out: Increase in Maximal Respiratory Capacity AUC.
Setting [5] is: 10 uM, read-out: % decrease in Macrophage IL-6 Secretion.
[6] abbreviates: MMA Tsi 5224, assay condition A (10 mM glucose, 2 mM L-glutamine, 1 mM pyruvate, 10% FBS), read-out: Increase in Maximal Respiratory Capacity AUC.
[7] abbreviates: MMA Tsi 5224, assay condition D (1 mM glucose, 10% FBS), read-out: Increase in Spare Capacity AUC.
Where [8] appears, read: 50 uM, read-out: % decrease in Macrophage IL-6 Secretion.

Experimental findings from patent US20230107216A1, “PANTETHEINE DERIVATIVES AND USES THEREOF” (Comet Therapeutics, Inc., priority 2018, published 2023) are described below.

Read-outs that look alike come from different tables or passages of the source.

As to `C[C@H](CC(=O)SCCNC(=O)CCNC(=O)[C@H](O)C(C)(C)CO)OC(=O)CCC(=O)O` [Compound 1243, 4-{[(2R)-4-[(2-{3-[(2R)-2,4-dihydroxy-3,3-dimethylbutanamido]propanamido}ethyl)sulfanyl]-4-oxobutan-2-yl]oxy}-4-oxobutanoic acid], in test [1] (setting [3]), the inhibition at 10 µM is no less than 30%. In addition, the activation at 10 µM in test [2] (MMA Tsi 5224, assay condition A (10 mM glucose, 2 mM L-glutamine, 1 mM pyruvate, 10% FBS), read-out: Increase in Spare Capacity AUC) was no less than 10%.
As to `CC(O)CC(O)CC(=O)SCCNC(=O)CCNC(=O)[C@H](O)C(C)(C)CO` (stereo partly drawn) [Compound 400], the results for the activation at 10 µM in test [1] (10 uM) and in test [2] (setting [4]) were no less than 30% and no less than 10%, respectively. Also, the inhibition at 50 µM in test [1] (50 uM, read-out: % decrease in Macrophage TNFα Secretion) is no less than 30%.
Take `CC1(CC(=O)SCCNC(=O)CCNC(=O)[C@H](O)C(C)(C)CO)OCCO1` [Compound 1252, (R)—S-(2-(3-(2,4-dihydroxy-3,3-dimethylbutanamido)propanamido)ethyl)-2-(2-methyl-1,3-dioxolan-2-yl)ethanethioate]: in test [1] (50 uM), the “% decrease in Live Macrophage Cells” value is reported as no less than 20% and the activation at 50 µM was no less than 30%. Moreover, in test [1] (setting [5]), the inhibition at 10 µM was no less than 30%. The inhibition at 10 µM in test [1] (setting [3]) was no less than 30%. For the same compound, the activation at 10 µM in test [2] (setting [4]) was no less than 10%.
In the case of `CC(=O)SCCNC(=O)CCNC(=O)[C@H](O)C(C)(C)COC(=O)CCC(=O)O` [Compound 1242, (R)-12-hydroxy-13,13-dimethyl-2,7,11,16-tetraoxo-15-oxa-3-thia-6,10-diazanonadecan-19-oic acid], in test [1] (10 uM), the “% decrease in Live Macrophage Cells” value is no less than 20%. Moreover, the values for the activation at 10 µM in test [1] (10 uM) and in test [2] (setting [4]) were no less than 30% and no less than 10%, respectively. In addition, the inhibition at 10 µM in test [1] (setting [5]) and in test [1] (setting [3]) was no less than 30% throughout.
As for `CC[C@@H](O)CC(=O)SCCNC(=O)CCNC(=O)[C@H](O)C(C)(C)CO` [Compound 1245, (2R)-2,4-dihydroxy-N-{2-[(2-{[(3R)-3-hydroxypentanoyl]sulfanyl}ethyl)carbamoyl]ethyl}-3,3-dimethylbutanamide], the activation at 10 µM in test [1] (10 uM) is no less than 30%. For the same compound, the inhibition at 10 µM in test [1] (setting [5]) and in test [1] (setting [3]) was no less than 30% in each case.
Regarding `CCC(C)C(=O)CC(=O)SCCNC(=O)CCNC(=O)[C@H](O)C(C)(C)CO` (stereo partly drawn) [Compound 1240, S-(2-(3-((R)-2,4-dihydroxy-3,3-dimethylbutanamido)propanamido)ethyl) 4-methyl-3-oxohexanethioate], the “% Increase in Live Macrophage Cells” value in test [1] (10 uM) was no less than 20%. Besides, the inhibition at 10 µM in test [1] (setting [5]) and in test [1] (setting [3]) was no less than 30% throughout. The activation at 50 µM in test [1] (50 uM) is no less than 30%. Further, the activation at 10 µM in test [2] (setting [6]) and in test [2] (setting [4]) was no less than 10% in each case.
As for `C[C@@H](O)CC(=O)SCCNC(=O)CCNC(=O)[C@H](O)C(C)(C)CO` [Compound 38, S-2-{3-[(R)-2,4-dihydroxy-3,3-dimethylbutyrylamino]propionylamino} ethyl (R)-3-hydroxybutanethioate], the “% Increase in Live Macrophage Cells” value in test [1] (50 uM) is recorded as no less than 20%. Besides, the activation at 10 µM in test [1] (10 uM) is no less than 30%; in test [2] (setting [4]), no less than 10%. Moreover, the inhibition at 10 µM in test [1] (setting [5]) and in test [1] (setting [3]) was no less than 30% each time.
`COC(=O)CCC(=O)SCCNC(=O)CCNC(=O)[C@H](O)C(C)(C)CO` [Compound 4, Methyl (R)-4-((2-(3-(2,4-dihydroxy-3,3-dimethylbutanamido)propanamido)ethyl)thio)-4-oxobutanoate]: the inhibition at 10 µM in test [1] (setting [3]) is no less than 30%. For the same compound, the activation at 10 µM in test [2] (setting [6]), in test [2] (setting [4]) and in test [2] (setting [7]) was no less than 10% each time.
`CC(C)(COC(=O)CCC(=O)O)[C@@H](O)C(=O)NCCC(=O)NCCS` [Compound 1310, (R)-4-(3-hydroxy-4-((3-((2-mercaptoethyl)amino)-3-oxopropyl)amino)-2,2-dimethyl-4-oxobutoxy)-4-oxobutanoic acid]: the inhibition at 10 µM in test [1] (setting [5]) and in test [1] (setting [3]) was no less than 30% in each case. The activation at 50 µM in test [1] (50 uM) is no less than 30%.
For the compound `CC(C)(CO)[C@@H](OC(=O)CCC(=O)O)C(=O)NCCC(=O)NCCS` [Compound 1311, (R)-4-((4-hydroxy-1-((3-((2-mercaptoethyl)amino)-3-oxopropyl)amino)-3,3-dimethyl-1-oxobutan-2-yl)oxy)-4-oxobutanoic acid], the “% decrease in IL-10 Secretion” value in test [1] (50 uM) is reported as no less than 30%. Besides, the inhibition at 10 µM in test [1] (setting [5]) and in test [1] (setting [3]) was no less than 30% throughout. Besides, the activation at 50 µM in test [1] (50 uM) is no less than 30%. The activation at 10 µM in test [2] (setting [6]) and in test [2] (setting [4]) was no less than 10% each time.
Consider `C/C=C/C(=O)SCCNC(=O)CCNC(=O)[C@H](O)C(C)(C)COP(=O)(O)O` [Compound 82, (R)—S-(2-(3-(2-hydroxy-3,3-dimethyl-4-(phosphonooxy)butanamido)propanamido)ethyl) (E)-but-2-enethioate], for which, in test [1] (setting [3]), the inhibition at 10 µM was no less than 30%. Moreover, the inhibition at 50 µM in test [1] (setting [8]) was no less than 30%. For the same compound, the activation at 10 µM in test [2] (setting [4]) was no less than 10%.
With `CC(C(=O)SCCNC(=O)CCNC(=O)[C@H](O)C(C)(C)CO)[C@@H](C)O` (stereo partly drawn) [Compound 1244, (2R)-2,4-dihydroxy-N-{2-[(2-{[(3R)-3-hydroxy-2-methylbutanoyl]sulfanyl}ethyl)carbamoyl]ethyl}-3,3-dimethylbutanamide], the inhibition at 10 µM in test [1] (setting [5]) and in test [1] (setting [3]) was no less than 30% throughout. Also, the activation at 10 µM in test [2] (setting [6]) was no less than 10%.
`CC(O)CC(O)CC(O)CC(=O)SCCNC(=O)CCNC(=O)[C@H](O)C(C)(C)CO` (stereo partly drawn) [Compound 401]: the “% decrease in Live Macrophage Cells” value in test [1] (50 uM) is no less than 20%. Further, in test [1] (setting [3]), the inhibition at 10 µM is no less than 30%.
For `CC(C)(CO)[C@@H](O)C(=O)NCCC(=O)NCCSC(=O)CC(O)C(=O)O` (stereo partly drawn) [Compound 39], the “% Increase in Live Macrophage Cells” value in test [1] (10 uM) is no less than 20%. The activation at 10 µM in test [1] (10 uM) was no less than 30%; in test [2] (setting [6]) it was no less than 10%. In addition, the inhibition at 10 µM in test [1] (setting [5]) and in test [1] (setting [3]) was no less than 30% each time.
Consider `CC(C)C(=O)CC(=O)SCCNC(=O)CCNC(=O)[C@H](O)C(C)(C)CO` [Compound 1239, (R)—S-(2-(3-(2,4-dihydroxy-3,3-dimethylbutanamido)propanamido)ethyl) 4-methyl-3-oxopentanethioate], for which the “% Increase in Live Macrophage Cells” value in test [1] (10 uM) is recorded as no less than 20%. In addition, the activation at 10 µM was no less than 30% in test [1] (10 uM) and no less than 10% in test [2] (setting [4]). Besides, the inhibition at 10 µM in test [1] (setting [5]) and in test [1] (setting [3]) was no less than 30% in each case.
Consider `COC(=O)/C=C/C(=O)SCCNC(=O)CCNC(=O)[C@H](O)C(C)(C)COP(=O)(O)O` [Compound 73, methyl (R,E)-4-((2-(3-(2-hydroxy-3,3-dimethyl-4-(phosphonooxy)butanamido)propanamido)ethyl)thio)-4-oxobut-2-enoate], for which the inhibition at 10 µM in test [1] (setting [3]) was no less than 30%. In addition, the inhibition at 50 µM in test [1] (setting [8]) is no less than 30%. Moreover, in test [2] (setting [4]), the activation at 10 µM is no less than 10%.
Regarding `COC(=O)C(C)C(=O)SCCNC(=O)CCNC(=O)[C@H](O)C(C)(C)CO` (stereo partly drawn) [Compound 405], in test [1] (50 uM), the “% decrease in IL-10 Secretion” value is listed as no less than 30% and the “% decrease in Live Macrophage Cells” value was no less than 20%. The activation at 10 µM in test [1] (10 uM) was no less than 30%. Further, in test [1] (setting [5]), the inhibition at 10 µM was no less than 30%. For the same compound, the inhibition at 10 µM in test [1] (setting [3]) is no less than 30%.
In the case of `CC(C)(CO)[C@@H](O)C(=O)NCCC(=O)NCCSC(=O)C1CCC(=O)N1` (stereo partly drawn) [Compound 1227, S-2-{3-[(R)-2,4-dihydroxy-3,3-dimethylbutyrylamino]propionylamino}ethyl 5-oxo-2-pyrrolidinecarbothioate], the activation at 10 µM was no less than 30% in test [1] (10 uM), no less than 10% in test [2] (setting [4]) and no less than 10% in test [2] (setting [7]). In test [1] (setting [3]), the inhibition at 10 µM is no less than 30%.
